Reference: publication PMC7912614, “(2-Aminobenzothiazole)-Methyl-1,1-Bisphosphonic Acids: Targeting Matrix Metalloproteinase 13 Inhibition to the Bone” (Pharmaceuticals, 2021)
Read-outs that look alike come from different tables or passages of the source.

How the values were obtained:
[1] = biological target: T1, MMP-9 (Homo sapiens, UniProt P14780); assay: fluorometric MMP inhibition assay, MMP-9 catalytic domain; type: biochemical; settings: for IC50: catalytic domain, fluorometric assay, mean ± SEM of at least 3 experiments; for Ligand Efficiency MMP-9: calculated from IC50 values of Table 2
T1 construct: Catalytic domains of MMP-2, -8, -9, and -13 were obtained from Enzo Life Sciences; purchased Enzo Life Sciences
Procedure: (§1) Catalytic domains of MMP-2, -8, -9, and -13 were obtained from Enzo Life Sciences. 96-well white microtiter plates (Corning, NBS) were used to carry out the assays (in triplicate). The assay measurements were performed by preparing dilutions to six different concentrations (1 nM–100 µM) of each inhibitor in a fluorometric assay buffer (50 mM Tris·HCl pH 7.5, 200 mM NaCl, 1 mM CaCl2, 1 µM ZnCl2, 0.05% Brij-35, and 1% DMSO). Incubation of the enzyme and inhibitor solutions occurred for 15 min at room temperature; fluorogenic substrate solution (OmniMMP® = Mca-Pro-Leu-Gly-Leu-Dpa-Ala-Arg-NH2, Enzo Life Sciences, 2.5 µM final concentration or OmniMMP®RED = TQ3-GABA-Pro-Cha-Abu-Smc-His-Ala-Dab (6′-TAMRA)-Ala-Lys-NH2, Enzo Life Sciences, and 1 µM final concentration) was subsequently added. The assay was incubated for 2–4 h at 37 °C, after which a Perkin–Elmer Victor V3 plate reader was used to measure fluorescence (λex= 340 nm, λem = 405 nm or λex = 545 nm, λem = 572 nm). Included in the assay were control wells lacking any inhibitor. MMP activity was thus determined and expressed in relative fluorescence units (RFU). Percent inhibition was calculated from control wells and IC50 values were determined using GraphPad Prism 5.0 and are shown as mean ± SEM of at least three independent measurements, which were performed in triplicate.

[2] = biological target: T2, MMP-2 (Homo sapiens, UniProt P08253); assay: fluorometric MMP inhibition assay, MMP-2 catalytic domain; type: biochemical; settings: for Ligand Efficiency MMP-2: calculated from IC50 values of Table 2; for IC50: catalytic domain, fluorometric assay, mean ± SEM of at least 3 experiments; for selectivity toward MMP-8 (MMP-2 inhibition versus MMP-8): ratio IC50 MMP-8 / IC50 MMP-2
T2 construct: Catalytic domains of MMP-2, -8, -9, and -13 were obtained from Enzo Life Sciences; purchased Enzo Life Sciences
Procedure: as §1

[3] = biological target: T3, MMP-8 (Homo sapiens, UniProt P22894); assay: fluorometric MMP inhibition assay, MMP-8 catalytic domain; type: biochemical; settings: for Ligand Efficiency MMP-8: calculated from IC50 values of Table 2; for IC50: catalytic domain, fluorometric assay, mean ± SEM of at least 3 experiments
T3 construct: Catalytic domains of MMP-2, -8, -9, and -13 were obtained from Enzo Life Sciences; purchased Enzo Life Sciences
Procedure: as §1

[4] = biological target: T4, MMP-13 (Homo sapiens, UniProt P45452); assay: fluorometric MMP inhibition assay, MMP-13 catalytic domain; type: biochemical; settings: for Ligand Efficiency MMP-13: calculated from IC50 values of Table 2; for IC50: catalytic domain, fluorometric assay, mean ± SEM of at least 3 experiments; for Selectivity MMP-2/13 / Selectivity MMP-8/13 / Selectivity MMP-9/13: ratio of IC50 values of Table 2
T4 construct: Catalytic domains of MMP-2, -8, -9, and -13 were obtained from Enzo Life Sciences; purchased Enzo Life Sciences
Procedure: as §1

[5] = biological target: T1, MMP-9; parameters: method as in PMID 21714093; settings: inhibition values from literature; cited from earlier work

T3 sequence (P22894 100-262 limits assumed): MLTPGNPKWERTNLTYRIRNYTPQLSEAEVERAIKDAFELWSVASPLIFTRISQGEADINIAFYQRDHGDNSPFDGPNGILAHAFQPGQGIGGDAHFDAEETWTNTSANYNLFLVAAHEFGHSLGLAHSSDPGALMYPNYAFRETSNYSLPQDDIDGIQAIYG
T1 sequence (P14780 107-444 limits assumed): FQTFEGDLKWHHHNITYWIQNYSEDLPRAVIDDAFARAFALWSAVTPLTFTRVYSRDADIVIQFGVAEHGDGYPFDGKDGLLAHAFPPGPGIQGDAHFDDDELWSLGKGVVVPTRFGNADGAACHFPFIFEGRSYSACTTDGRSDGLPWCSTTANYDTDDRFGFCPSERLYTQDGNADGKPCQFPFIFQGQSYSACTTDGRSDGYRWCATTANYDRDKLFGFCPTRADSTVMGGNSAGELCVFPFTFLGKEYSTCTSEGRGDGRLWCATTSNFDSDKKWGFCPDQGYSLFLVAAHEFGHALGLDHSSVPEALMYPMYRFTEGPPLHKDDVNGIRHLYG
T2 sequence (P08253 110-446 limits assumed): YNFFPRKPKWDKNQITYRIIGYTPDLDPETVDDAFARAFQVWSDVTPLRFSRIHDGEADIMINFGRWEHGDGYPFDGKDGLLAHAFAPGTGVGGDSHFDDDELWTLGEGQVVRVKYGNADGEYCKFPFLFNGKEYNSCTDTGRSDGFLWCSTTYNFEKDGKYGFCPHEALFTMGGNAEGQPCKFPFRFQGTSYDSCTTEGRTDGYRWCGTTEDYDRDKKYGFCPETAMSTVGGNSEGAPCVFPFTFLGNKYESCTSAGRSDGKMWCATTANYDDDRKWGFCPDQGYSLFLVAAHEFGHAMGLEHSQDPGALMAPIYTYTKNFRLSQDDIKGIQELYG

Row | SMILES | IC50 [1] [µM] | Ligand Efficiency MMP-2 [2] | IC50 [2] [µM] | Ligand Efficiency MMP-8 [3] | IC50 [3] [µM] | Ligand Efficiency MMP-13 [4] | IC50 [4] [µM] | Selectivity MMP-2/13 [4] | Selectivity MMP-8/13 [4] | Selectivity MMP-9/13 [4] | Ligand Efficiency MMP-9 [1] | melting point [°C] | selectivity toward MMP-8 (MMP-2 inhibition versus MMP-8) [2] | IC50 [5] [µM]
1 | O=P(O)(O)C(Nc1nc2ccccc2s1)P(=O)(O)O [Compound 1, (Benzo[d]thiazol-2-amino)methyl-1,1-bisphosphonic acid] | > 100 | 0.36 | 12.7 ± 0.8 | 0.30 | 84.3 ± 2.1 | 0.38 | 6.5 ± 1.2 | 1.95 | 12.97 | >15.4 | – | – | – | –
2 | O=P(O)(O)C(Nc1nc2ccc(F)cc2s1)P(=O)(O)O [Compound 2, (6-fluorobenzo[d]thiazol-2-amino)methyl-1,1-bisphosphonic acid] | 26.5 ± 2.7 | 0.35 | 9 ± 0.9 | 0.31 | 32.1 ± 1.9 | 0.37 | 4.25 ± 0.35 | 2.12 | 7.55 | 6.24 | 0.31 | > 250 | – | –
3 | O=C(Nc1ccc2nc(NC(P(=O)(O)O)P(=O)(O)O)sc2c1)c1ccc(Br)cc1 [Compound 6, (6-(4-bromobenzamido)benzo[d]thiazol-2-amino)methyl-1,1-bisphosphonic acid] | > 100 | 0.22 | 13.8 ± 0.9 | 0.19 | 60 ± 2.6 | 0.24 | 6.7 ± 0.5 | 2.06 | 8.96 | >14.92 | – | > 250 | – | –
4 | O=C(Cc1ccccc1)Nc1ccc2nc(NC(P(=O)(O)O)P(=O)(O)O)sc2c1 [Compound 8, (6-(2-phenylacetamido)benzo[d]thiazol-2-amino)methyl-1,1-bisphosphonic acid] | 22 ± 8 | 0.27 | 2.4 ± 0.5 | 0.23 | 10.8 ± 3.1 | 0.24 | 9.3 ± 0.7 | 0.26 | 1.16 | 2.37 | 0.22 | > 250 | – | –
5 | O=C(Nc1ccccc1)Nc1ccc2nc(NC(P(=O)(O)O)P(=O)(O)O)sc2c1 [Compound 9, (6-(3-phenylureido)benzo[d]thiazol-2-amino)methyl-1,1-bisphosphonic acid] | 13.6 ± 1.4 | 0.26 | 3 ± 0.4 | 0.23 | 15 ± 5 | 0.23 | 11.5 ± 1.9 | 0.26 | 1.30 | 1.18 | 0.23 | > 250 | – | –
6 | O=C1c2ccccc2C(=O)N1c1ccc2nc(NC(P(=O)(O)O)P(=O)(O)O)sc2c1 [Compound 10, (6-(1,3-dioxoisoindolin-2-yl)benzo[d]thiazol-2-amino)methyl-1,1-bisphosphonic acid] | 5.4 ± 1.6 | 0.26 | 1.69 ± 0.08 | 0.23 | 12 ± 0.4 | 0.23 | 10.9 ± 2.4 | 0.16 | 1.10 | 0.50 | 0.24 | > 250 | – | –
7 | CC(N)C(=O)Nc1ccc2nc(NC(P(=O)(O)O)P(=O)(O)O)sc2c1 (stereo not drawn) [Compound 11] | > 100 | 0.28 | 9.4 ± 2 | 0.23 | 54 ± 6 | 0.23 | 61.9 ± 1.3 | 0.15 | 0.87 | >1.62 | – | > 250 | – | –

Compounds with a lower IC50 [4], results first:

Row | IC50 [1] [µM] | Ligand Efficiency MMP-2 [2] | IC50 [2] [µM] | Ligand Efficiency MMP-8 [3] | IC50 [3] [µM] | Ligand Efficiency MMP-13 [4] | IC50 [4] [µM] | Selectivity MMP-2/13 [4] | Selectivity MMP-8/13 [4] | Selectivity MMP-9/13 [4] | Ligand Efficiency MMP-9 [1] | melting point [°C] | selectivity toward MMP-8 (MMP-2 inhibition versus MMP-8) [2] | SMILES | IC50 [5] [µM]
8 | 18.7 ± 2.9 | 0.38 | 2.64 ± 0.04 | 0.33 | 14.6 ± 0.2 | 0.41 | 1.23 ± 0.12 | 2.15 | 11.87 | 15.20 | 0.32 | > 250 | – | O=P(O)(O)C(Nc1nc2ccc(Cl)cc2s1)P(=O)(O)O [Compound 3, (6-chlorobenzo[d]thiazol-2-amino)methyl-1,1-bisphosphonic acid] | –
9 | 7.7 ± 1.1 | 0.33 | 4.5 ± 0.5 | 0.31 | 9 ± 0.4 | 0.35 | 2.25 ± 0.15 | 2.00 | 4.00 | 3.42 | 0.32 | > 250 | – | O=[N+]([O-])c1ccc2nc(NC(P(=O)(O)O)P(=O)(O)O)sc2c1 [Compound 4, (6-nitrobenzo[d]thiazol-2-amino)methyl-1,1-bisphosphonic acid] | –
10 | 6.3 ± 0.9 | 0.29 | 1.16 ± 0.18 | 0.25 | 9 ± 0.3 | 0.30 | 0.67 ± 0.025 | 1.73 | 13.43 | 9.40 | 0.25 | > 250 | 7.76 | O=C(Nc1ccc2nc(NC(P(=O)(O)O)P(=O)(O)O)sc2c1)c1ccccc1 [Compound 5, (6-benzamidobenzo[d]thiazol-2-amino)methyl-1,1-bisphosphonic acid] | –
11 | 5.4 ± 1.1 | 0.27 | 0.98 ± 0.16 | 0.23 | 6.7 ± 0.8 | 0.28 | 0.5 ± 0.01 | 1.96 | 13.40 | 10.80 | 0.23 | > 250 | 6.84 | O=C(Nc1ccc2nc(NC(P(=O)(O)O)P(=O)(O)O)sc2c1)c1ccc([N+](=O)[O-])cc1 [Compound 7, (6-(4-nitrobenzamido)benzo[d]thiazol-2-amino)methyl-1,1-bisphosphonic acid] | –
12 | 36.6 ± 1.8 | 0.35 | 4.7 ± 1.1 | 0.31 | 21.3 ± 1.7 | 0.40 | 0.82 ± 0.06 | 5.73 | 25.98 | 44.63 | 0.29 | > 250 | – | O=P(O)(O)C(CNc1nc2ccc(Cl)cc2s1)P(=O)(O)O [Compound 12, (6-chlorobenzo[d]thiazol-2-amino)ethyl-1,1-bisphosphonic acid] | –
13 | – | 0.38 | – | 0.35 | – | 0.34 | 0.6 ± 0.3 | 0.23 | 0.67 | >166.67 | – | – | – | O=P(O)(O)C(NS(=O)(=O)c1ccc(-c2ccccc2)cc1)P(=O)(O)O [ML115, reference compound] | > 100
